Earlier results on three compounds are cited in patent US20080306035A1, “Methods and Compositions for Treating Female Infertility Using Clomiphene” (priority 2005, published 2008).

For series [1] the following is noted: in vivo.

Counter-ions that a name gives are not always drawn.

Regarding `CCN(CC)CCOc1ccc(C(=C(Cl)c2ccccc2)c2ccccc2)cc1` [clomiphene citrate], the “patients treated who achieve pregnancy” value (patients treated with clomiphene citrate, London et al. 1999) is given as 25-40%. Moreover, the “ovulation, share of patients” value (up to 100 mg clomiphene citrate for 5 days per cycle) is listed as “about 70%”.
Consider cis-clomiphene, for which the “effect on uterine blood flow” value in series [1] was “raise uterine blood flow”.
Regarding trans-clomiphene, in series [1], the “effect on uterine blood flow” value is “raise uterine blood flow”.
